These results are taken from US7745483B2, “2-Halofuryl-thienyl-3-carboxamides” (Bayer CropScience AG, priority 2004, dated 2010).

One assay has as its system Sphaerotheca fuliginea. As to the kind of experiment: Sphaerotheca test (cucumber)/protective. Format: in vivo. As to conditions: Podosphaera fuliginea, 168 h, protective, application rate 100 g/ha, evaluation 7 days after inoculation, read-out: Efficacy in %. As to the method:
[table] To produce a suitable preparation of active compound, one part by weight of active compound is mixed with the stated amounts of solvent and emulsifier, and the concentrate is diluted with water to the desired concentration. To test for protective activity, young plants are sprayed with the preparation of active compound at the stated application rate. After the spray coating has dried on, the plants are inoculated with an aqueous spore suspension of Sphaerotheca fuliginea. The plants are then placed in a greenhouse at about 23° C. and a relative atmospheric humidity of about 70%. Evaluation is carried out 7 days after the inoculation. 0% means an efficacy which corresponds to that of the control, whereas an efficacy of 100% means that no infection is observed.
For `CC(C)CC(C)c1ccccc1NC(=O)c1ccsc1Br` (centres unmarked) [drawing 178], the pest or weed control at 100 g/ha amounted to 100%.

With `CC(C[Si](C)(C)C)c1ccccc1NC(=O)c1ccoc1I` (centres unmarked) [drawing 171], the pest or weed control at 100 g/ha came out at 100%.

With `O=C(Nc1ccc(F)cc1-c1ccc(Cl)c(Cl)c1)c1ccsc1I` [drawing 173], the pest or weed control at 100 g/ha is 100%.

For the molecule `O=C(Nc1ccc(F)cc1-c1cccc(Cl)c1F)c1ccsc1I` [drawing 162], the pest or weed control at 100 g/ha turned out to be 100%.

For `O=C(Nc1ccccc1-c1ccc(Br)cc1Cl)c1ccsc1I` [drawing 157], the pest or weed control at 100 g/ha was found to be 100%.

On to `O=C(Nc1ccccc1-c1ccc(Cl)c(F)c1)c1ccsc1Br` [drawing 182], for which the pest or weed control at 100 g/ha amounted to 100%.

With `Cc1ccc(-c2ccccc2NC(=O)c2ccsc2I)cc1F` [drawing 174], the pest or weed control at 100 g/ha worked out at 100%.

On to `CC(CC(C)(C)C)c1ccccc1NC(=O)c1ccoc1I` (centres unmarked) [drawing 153], for which the pest or weed control at 100 g/ha turned out to be 98%.

The subject of the next assay is Puccinia recondita. Nature of the assay: Puccinia test (wheat)/protective. In kind it is in vivo. As to conditions: 240 h, protective, application rate 500 g/ha, evaluation 10 days after inoculation, read-out: Efficacy in %. As to the method: [table] To produce a suitable preparation of active compound, 1 part by weight of active compound is mixed with the stated amounts of solvent and emulsifier, and the concentrate is diluted with water to the desired concentration. To test for protective activity, young plants are sprayed with the preparation of active compound at the stated application rate. After the spray coating has dried on, the plants are sprayed with a conidia suspension Puccinia recondita. The plants remain in an incubation cabin at 20° C. and 100% relative atmospheric humidity for 48 hours. The plants are then placed in a greenhouse at a temperature of about 20° C. and a relative atmospheric humidity of 80% to promote the development of rust pustules. Evaluation is carried out 10 days after the inoculation. 0% means an efficacy which corresponds to that of the control, whereas an efficacy of 100% means that no infection is observed.
Consider `CO/N=C/c1ccc(-c2ccccc2NC(=O)c2ccsc2I)cc1F` [drawing 280], for which the pest or weed control at 500 g/ha worked out at 100%.

As for `CC(C)CC(C)c1cc(F)ccc1NC(=O)c1ccsc1I` (centres unmarked) [drawing 279], the pest or weed control at 500 g/ha is 100%.

Consider `O=C(Nc1ccccc1-c1ccc(Br)cc1)c1ccoc1I` [drawing 268], for which the pest or weed control at 500 g/ha is 100%.

In the case of `O=C(Nc1ccccc1-c1ccc(Br)c(Cl)c1)c1ccsc1I` [drawing 265], the pest or weed control at 500 g/ha came to 100%.

Regarding `CC(C)CC(C)c1sccc1NC(=O)c1ccsc1I` (centres unmarked) [drawing 281], the pest or weed control at 500 g/ha worked out at 100%.

On to `C=C(CC(C)(C)C)c1ccccc1NC(=O)c1ccsc1I` [drawing 273], for which the pest or weed control at 500 g/ha was 93%.

As for `CC1CC(C)(C)c2cccc(NC(=O)c3ccsc3I)c21` (centres unmarked) [drawing 278], the pest or weed control at 500 g/ha was 100%.

`CC(CC(C)(C)C)c1ccccc1NC(=O)c1ccoc1I` (centres unmarked) [drawing 269]: the pest or weed control at 500 g/ha is 100%.

For `O=C(Nc1ccccc1-c1ccc(Br)c(F)c1)c1ccsc1I` [drawing 264], the pest or weed control at 500 g/ha came out at 100%.

`O=C(Nc1ccccc1-c1ccc(Cl)c(F)c1)c1ccsc1I` [drawing 274]: the pest or weed control at 500 g/ha was 94%.

Consider `CC(C)(C)CCc1ccccc1NC(=O)c1ccsc1I` [drawing 263], for which the pest or weed control at 500 g/ha came out at 97%.

Consider `CC(C)CC(C)c1ccccc1NC(=O)c1ccsc1I` (centres unmarked) [drawing 260], for which the pest or weed control at 500 g/ha worked out at 100%.

Consider `O=C(Nc1ccccc1-c1ccc(Cl)c(F)c1)c1ccoc1I` [drawing 270], for which the pest or weed control at 500 g/ha worked out at 100%.

Turning to `O=C(Nc1ccccc1-c1ccc(Cl)c(Cl)c1)c1ccsc1Br` [drawing 284], the pest or weed control at 500 g/ha was determined as 100%.

Turning to `CC(C[Si](C)(C)C)c1ccccc1NC(=O)c1ccsc1I` (centres unmarked) [drawing 276], the pest or weed control at 500 g/ha came to 100%.

Regarding `CC(C)CC(C)c1ccccc1NC(=O)c1ccoc1I` (centres unmarked) [drawing 261], the pest or weed control at 500 g/ha is 100%.

Regarding `CC(C)CC(C)c1ccccc1NC(=O)c1ccsc1Br` (centres unmarked) [drawing 282], the pest or weed control at 500 g/ha is 100%.

`CC(C[Si](C)(C)C)c1cc(F)ccc1NC(=O)c1ccsc1I` (centres unmarked) [drawing 287]: the pest or weed control at 500 g/ha amounted to 100%.

On to `O=C(Nc1ccc(F)cc1-c1ccc(Cl)c(Cl)c1)c1ccsc1I` [drawing 277], for which the pest or weed control at 500 g/ha was found to be 100%.

Turning to `O=C(Nc1ccccc1-c1ccc(Cl)c(F)c1)c1ccsc1Br` [drawing 285], the pest or weed control at 500 g/ha amounted to 100%.

As to `CC(CC(C)(C)C)c1ccccc1NC(=O)c1ccsc1Br` (centres unmarked) [drawing 283], the pest or weed control at 500 g/ha is 100%.

As for `C[Si](C)(C)CCc1ccccc1NC(=O)c1ccsc1I` [drawing 262], the pest or weed control at 500 g/ha stood at 97%.

On to `O=C(Nc1ccccc1-c1ccc(Cl)c(Cl)c1)c1ccsc1I` [drawing 271], for which the pest or weed control at 500 g/ha was 100%.

On to `CC(C)(C)CCc1cc(F)ccc1NC(=O)c1ccsc1I` [drawing 266], for which the pest or weed control at 500 g/ha is 100%.
